Test results taken from PubChem BioAssay (NCI).
“And” between values parts separate entries of the source, which are not always exact repeats. Equal entries are not always repeated.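 Each compound was tested at five concentrations against cells in 96-well plates for 48 hours. The concentration for 50% growth inhibition is given as GI50. TGI is the concentration that stops growth completely.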

How the values were obtained:
Test in all cases: NCI anticancer screen, dose series, 48 h
[1] = test system: HT29 colon
[2] = test system: CCRF-CEM leukemia
[3] = test system: NCI-H226 lung
[4] = test system: UO-31 renal
[5] = test system: EKVX NSCLC
[6] = test system: M14 melanoma
[7] = test system: U251 CNS
[8] = test system: HCT-15 colon
[9] = test system: OVCAR-5 ovarian
[10] = test system: SK-MEL-5 melanoma
[11] = test system: MDA-N

Compound	TGI [1]	TGI [2]	TGI [3] [µM]	GI50 [4]	TGI [4]	TGI [5] [µM]	TGI [6]	TGI [7]	TGI [8]	TGI [9]	TGI [10]	TGI [11] [µM]	GI50 [1]	GI50 [2]	GI50 [9]	GI50 [10]	GI50 [6]	GI50 [7]	GI50 [8]	GI50 [5] [µM]
N#Cc1nn(-c2ccc(Cl)cc2)c(N)c2c(=N)n3nc(-c4ccccc4)cc3nc12	> 32.8 µM	> 100 µM	> 100	31.5 µM	98.5 µM	> 100	> 100 µM	> 55.8 µM	> 100 µM	–	–	–	–	–	–	–	–	–	–	–
CCCCN(CCCC)CC(=O)c1ccc2cc(Cl)c3ccccc3c2c1	46 µM	> 100 µM	89.5	–	50.4 µM	> 100	> 100 µM	68.8 µM	53.3 µM	> 100 µM	34.6 µM	–	–	–	–	–	–	–	–	–
Cn1c2ccccc2n2c(=O)c(-c3ccc(O)cc3)nnc12	> 100 µM	> 100 µM	> 100	–	> 100 µM	> 100	> 100 µM	85.8 µM	> 100 µM	> 100 µM	> 100 µM	–	–	–	–	–	–	–	–	–
CCOC(=O)c1c(OCC)[nH]c(=O)c(C(c2ccc(F)cc2)c2c(O)c(C(=O)OCC)c(OCC)[nH]c2=O)c1O	31.7 µM	> 100 µM	26.1	–	25.7 µM	33.2	63.3 µM	36.3 µM	40.4 µM	> 100 µM	25.9 µM	–	–	–	–	–	–	–	–	–
CCOC(=O)Cc1csc(/N=C\c2c(O)c3ccccc3oc2=O)n1	> 100 µM	85.9 µM	97.8	–	> 100 µM	> 100	> 100 µM	> 100 µM	> 100 µM	> 100 µM	52.6 µM	–	–	–	–	–	–	–	–	–
COC(=O)CSc1[nH]c2nc(C)nc(Nc3ccccc3)c2c1C#N	> 10 µM	> 10 µM	–	–	–	> 10	> 10 µM	–	> 10 µM	–	> 10 µM	> 10	–	–	–	–	–	–	–	–
CC(=O)OCC1OC(n2c(-c3ccccc3)c(N=Nc3ccc(Cl)cc3)c(C)c(C#N)c2=S)C(OC(C)=O)C(OC(C)=O)C1OC(C)=O (configuration not stated)	49.1 µM and > 100 µM	54.3 µM and > 100 µM	–	5.87 µM and 47.3 µM	27.1 µM and > 100 µM	–	32.4 µM and > 100 µM	15.6 µM and 74.4 µM	29.1 µM and > 100 µM	30.6 µM and > 100 µM	14.4 µM and 54.8 µM	> 100	20.1 µM and 87.7 µM	4.1 µM and 13.7 µM	15.7 µM and > 100 µM	4.01 µM and 10.4 µM	9.33 µM and 71.1 µM	3.79 µM and 24 µM	7.59 µM and 59.8 µM	–
CC1OC(OP(=O)(OCc2ccccc2)OCc2ccccc2)C(OC(=O)c2ccccc2)C(OC(=O)c2ccccc2)C1I (configuration not stated)	> 100 µM	> 100 µM	–	–	> 100 µM	> 100	> 100 µM	> 100 µM	> 100 µM	> 100 µM	> 100 µM	–	–	–	–	–	–	–	–	–
O=C(/C=C1\N=C(c2ccccc2)N(c2ccc3c(c2)Sc2cc(N4C(=O)/C(=C/C(=O)/C=C/c5ccccc5)N=C4c4ccccc4)ccc2N3)C1=O)/C=C/c1ccccc1	> 100 µM	63 µM	–	–	> 100 µM	> 100	> 100 µM	57.8 µM	> 100 µM	48.8 µM	33.5 µM	–	–	–	–	–	–	–	–	–
N#CC(C(=O)c1ccccc1F)c1nc2cc(C(F)(F)F)ccc2s1 (configuration not stated)	53.2 µM	–	> 100	–	–	81.6	–	> 100 µM	56.7 µM	89.6 µM	52.3 µM	–	–	–	–	–	–	–	–	–
COc1cc(/C=C\c2ccc(SC)cc2)cc(OC)c1OC	0.59 µM	> 47.1 µM	–	–	45.3 µM	> 100	> 100 µM	1.11 µM	29.4 µM	> 18.5 µM	2.72 µM	–	–	–	–	–	–	–	–	–
COC(=O)c1nc2c(C)c(O)c(O)c([C@H](C)CCC=C(C)C)c2o1	37 µM	29.6 µM	34.2	–	41.5 µM	> 100	> 100 µM	> 100 µM	> 100 µM	> 100 µM	28.4 µM	–	–	–	–	–	–	–	–	–
Cc1c(Cl)cccc1NC(=O)C(=O)C1C(=O)NC(=O)NC1=O	> 100 µM	> 100 µM	> 100	–	> 100 µM	> 100	> 100 µM	> 100 µM	> 100 µM	> 100 µM	> 100 µM	–	–	–	–	–	–	–	–	–
COc1cc(-c2ccc(-c3ccc(C(=N)N)s3)s2)cc(OC)c1OC	–	10.4 µM	–	1.74 µM	3.54 µM	4.85	–	–	4.51 µM	3.25 µM	2.88 µM	–	–	3.42 µM	1.47 µM	1.52 µM	–	–	1.91 µM	1.92
CC(C)C[C@H](NC(=O)[C@@H](Cc1cccc2ccccc12)NC(=O)N1CCOCC1)B(O)O	8.86 µM	15.2 µM	3.2	–	41.5 µM	47.6	10.8 µM	17.7 µM	50.1 µM	13.5 µM	9.24 µM	–	–	–	–	–	–	–	–	–
CCC(=O)O[C@@H]1C2C(OC(C)=O)C34COC(C)([C@@H]3C3C(C[C@]3(C)OC(C)=O)[C@@H](OC(=O)c3ccccc3)C4=O)[C@H](OC(C)=O)[C@@]2(OC(C)=O)C[C@@H]1C (some centres not stated)	> 100 µM	36.8 µM	41.4	–	> 100 µM	> 100	> 100 µM	46 µM	29.5 µM	> 100 µM	51 µM	–	–	–	–	–	–	–	–	–

Compound	TGI [1]	TGI [2]	TGI [3] [µM]	GI50 [4]	TGI [4]	TGI [5] [µM]	TGI [6]	TGI [7]	TGI [8]	TGI [9]	TGI [10]	TGI [11] [µM]	GI50 [1]	GI50 [2]	GI50 [9]	GI50 [10]	GI50 [6]	GI50 [7]	GI50 [8]	GI50 [5] [µM]
CCCCCCCCCCCCCC(=O)OCC1OC(OC)C(NC(=O)N(CCCl)N=O)C(O)C1O (configuration not stated)	50.4 µM	30.2 µM	75.7	–	51.7 µM	–	39.6 µM	52.4 µM	> 100 µM	91.1 µM	45.1 µM	–	–	–	–	–	–	–	–	–
O=Cc1cc(O)c(O)c(O)c1-c1c(C=O)cc(O)c(O)c1O	> 100 µM	> 100 µM	> 100	–	> 100 µM	> 100	> 100 µM	> 100 µM	> 100 µM	> 100 µM	> 100 µM	–	–	–	–	–	–	–	–	–
C[C@H](NC(=O)OC1C2C=CC(O)C1CC2)c1ccccc1 (some centres not stated)	–	> 100 µM	> 100	–	> 100 µM	> 100	> 100 µM	> 100 µM	33.6 µM	> 100 µM	> 100 µM	–	–	–	–	–	–	–	–	–
CC(=O)OC(C)(C)C1CCC(C)(C(O)COc2ccc(CCNC(=O)c3ccccc3)cc2)O1 (configuration not stated)	> 100 µM	> 100 µM	–	–	> 100 µM	–	> 100 µM	> 100 µM	> 100 µM	> 100 µM	29.4 µM	–	–	–	–	–	–	–	–	–
CC1(C)COC(c2cccc(C3=NC(C)(C)CO3)c2)=N1	> 100 µM	–	> 100	–	> 100 µM	> 100	> 100 µM	> 100 µM	> 100 µM	> 100 µM	> 100 µM	–	–	–	–	–	–	–	–	–
COC(=O)CP1(=O)OC2C(C3CCC2(C)C3(C)C)N1c1cc(C(F)(F)F)cc(C(F)(F)F)c1 (configuration not stated)	> 100 µM	–	71.7	–	> 100 µM	> 100	> 100 µM	> 100 µM	97.5 µM	> 100 µM	> 100 µM	–	–	–	–	–	–	–	–	–
CC(=O)OC1COC(N2C(=O)C(=O)c3cc(Br)c([N+](=O)[O-])cc32)C(OC(C)=O)C1OC(C)=O (configuration not stated)	> 100 µM	89.2 µM	> 100	–	–	> 100	> 100 µM	> 100 µM	> 100 µM	> 100 µM	> 100 µM	–	–	–	–	–	–	–	–	–
CCOC(=O)[C@H]1Nc2ccc(O)cc2C2c3ccccc3CC21 (some centres not stated)	> 100 µM	–	> 100	–	> 100 µM	> 100	> 100 µM	> 100 µM	> 100 µM	> 100 µM	> 100 µM	–	–	–	–	–	–	–	–	–
OC(Cn1cncn1)(Cn1cncn1)c1ccc(Cl)cc1Cl	> 100 µM	> 100 µM	> 100	–	> 100 µM	–	> 100 µM	> 100 µM	> 100 µM	> 100 µM	> 100 µM	–	–	–	–	–	–	–	–	–
Cn1cc(C(=O)C2CCCCC2)ccc1=O	> 100 µM	> 100 µM	> 100	–	> 100 µM	> 100	> 100 µM	> 100 µM	> 100 µM	> 100 µM	> 100 µM	–	–	–	–	–	–	–	–	–
CCC1OC2C(CC=C(C)C)=C3OC(C)(O)C(C)(CC)C(O)C3=C3OC(=O)C=C1C32 (configuration not stated)	–	> 100 µM	> 100	–	> 100 µM	> 100	> 100 µM	> 100 µM	> 100 µM	> 100 µM	> 100 µM	–	–	–	–	–	–	–	–	–
Cc1ccc(S(=O)(=O)OC2CN3CCC2CC3)cc1 (configuration not stated)	> 100 µM	> 100 µM	> 100	–	> 100 µM	> 100	> 100 µM	> 100 µM	> 100 µM	> 100 µM	> 100 µM	–	–	–	–	–	–	–	–	–
C[Si](C)(C)C#C[I+]c1ccccc1	> 100 µM	75.8 µM	> 100	–	> 100 µM	> 100	85.9 µM	> 100 µM	56.1 µM	> 100 µM	> 100 µM	–	–	–	–	–	–	–	–	–
CC(=O)c1nc2ccccc2n1CC(=O)c1ccc([N+](=O)[O-])cc1	46 µM	> 100 µM	57.9	–	45.9 µM	> 100	> 100 µM	19.9 µM	> 100 µM	–	–	–	–	–	–	–	–	–	–	–
C#CCNC(Cc1ccccc1)C(=O)O (configuration not stated)	> 100 µM	> 100 µM	> 100	–	> 100 µM	> 100	> 100 µM	> 100 µM	> 100 µM	> 100 µM	> 100 µM	–	–	–	–	–	–	–	–	–
